Measurements from US20140329682A1, “METHOD OF CONTROLLING WEED IN A SUGAR CANE FIELD” (SUMITOMO CHEMICAL COMPANY, LIMITED, priority 2011, published 2014).

Columns and labels:
[1] = test system: Amaranthus retroflexus; experiment: Herbicidal activity, soil surface spray after planting (Example 4); type: in vivo; settings: 3 cm stem cutting, one node, soil surface spray on date of planting, four weeks after treatment
[2] = test system: sugar cane; experiment: Phytotoxicity on sugar cane, spray above weed before planting, azole-fungicide-treated stem cutting (Example 11)
Description: (§1) The “phytotoxicity” evaluated herein is the damage characteristic determined to be due to a treated compound, and is clearly discriminated from the damage characteristic caused by a harmful animal or plant disease.
A soil is packed into a plastic pat, and seeds of Amaranthus retroflexus are seeded thereon. Thereafter, the pot is placed in a greenhouse, and the weed is grown.
A 30 cm to 40 cm stem cutting of sugar cane is placed on a wet soil, and germination is stimulated. The stem cutting from which a bud has grown to about 1 cm is selected, and the length of the stem cutting is adjusted to be 3 cm so that the stem cutting has one node. Azaconazole, bitertanol, bromoconazole, cyproconazole, difenoconazole, diniconazole, epoxyconazole, fenbuconazole, fluquinconazole, flusilazole, flutriafol, hexaconazole, imibenconazole, ipconazole, metconazole, myclobutanil, penconazole, propiconazole, prothioconazole, simeconazole, tebuconazole, tetraconazole, triadimenol, triticonazole, fenarimol, nuarimol, pyrifenox, imazalil, oxpoconazole fumarate, pefurazoate, procloraz or triflumizole is adhered to the stem cutting.
(§2) The pot for a test is placed in a greenhouse.

[3] = test system: sugar cane; experiment: Phytotoxicity on sugar cane, soil surface spray after planting (Example 4)
Source text: as §1
A 30 cm to 40 cm stem cutting of sugar cane is placed on a wet soil, and germination is stimulated. The stem cutting from which a bud has grown to about 1 cm is selected, and the length of the stem cutting is adjusted to be 3 cm so that the stem cutting has one node. A soil is packed into a plastic pot, and seeds of Amaranthus retroflexus are seeded thereon. The stem cutting of sugar cane is planted in the soil packed in the pot at a depth of 2 cm. […] Thereafter, the pot for a test is placed in a greenhouse.

[4] = test system: Amaranthus retroflexus; experiment: Herbicidal activity, spray above weed before planting, insecticide-treated stem cutting (Example 7); type: in vivo; settings: sprayed above weed, 3 cm stem cutting treated with clothianidin, thiamethoxiam, imidacloprid, dinotefuran, nitenpyram, acetamiprid or thiacloprid planted one week after treatment, four weeks after treatment
[5] = test system: sugar cane; experiment: Phytotoxicity on sugar cane, spray above weed before planting, insecticide-treated stem cutting (Example 7)
Description: as §1
A soil is packed into a plastic pot, and seeds of Amaranthus retroflexus are seeded thereon. Thereafter, the pot is placed in a greenhouse, and the weed is grown.
A 30 cm to 40 cm stem cutting of sugar cane is placed on a wet soil, and germination is stimulated. The stem cutting from which a bud has grown to about 1 cm is selected, and the length of the stem cutting is adjusted to be 3 cm so that the stem cutting has one node. Clothianidin, thiamethoxiam, imidacloprid, dinotefuran, nitenpyram, acetamiprid or thiacloprid is adhered to the stem cutting.
as §2

[6] = test system: sugar cane; experiment: Phytotoxicity on sugar cane, soil surface spray, strobilurin-treated stem cutting (Example 8)
Source text: as §1
A 30 cm to 40 cm stem cutting of sugar cane is placed on a wet soil, and germination is stimulated. The stem cutting from which a bud has grown to about 1 cm is selected, and the length of the stem cutting is adjusted to be 3 cm so that the stem cutting has one node. Kresoxim-methyl, azoxystrobin, trifloxystrobin, fluoxastrobin, picoxystrobin, pyraclostrobin, dimoxystrobin, pyribencarb, metominostrobin, orysastrobin, enestrobin, pyraoxystrobin or pyrametostrobin is adhered to the stem cutting. A soil is packed into a plastic pot, and seeds of Amaranthus retroflexus are seeded thereon. The stem cutting of sugar cane treated with kresoxim-methyl, azoxystrobin, trifloxystrobin, fluoxastrobin, picoxystrobin, pyraclostrobin, dimoxystrobin, pyribencarb, metominostrobin, orysastrobin, enestrobin, pyraoxystrobin or pyrametostrobin is planted in the soil packed into the pot at a depth of 2 cm. […] Thereafter, the pot for a test is placed in a greenhouse.

[7] = test system: Amaranthus retroflexus; experiment: Herbicidal activity, spray from upper side of pot, sugar cane at 4 to 5 leaves (Example 2); type: in vivo; settings: 125 g (active ingredient)/ha, four weeks after treatment, scale 0 to 100
Description: A sugar cane, a foliage of which had grown to about 4 to 5 leaves, was selected, and the length of the stem cutting was adjusted to be 8 cm, 15 cm or 25 cm. The 8 cm or 15 cm stem cutting had one node, and the 25 cm stem cutting had two nodes. A soil was packed into a 32 cm×25 cm×11 cm plastic pot, and seeds of Amaranthus retroflexus were seeded thereon. […] On the date when the stem cutting was planted, and after planting of the stem cutting, a water-diluted liquid of a flumioxazin water dispersible granule (water dispersible granule containing 51% flumioxazin, trade name: Valor SX, manufactured by Valent USA Corporation) (250 ppm) was uniformly sprayed with a sprayer from an upper side of the pot at an amount described in Table 2. Thereafter, the pot for a test was placed in a greenhouse. One week after treatment with flumioxazin, phytotoxicity on sugar cane was determined and, four weeks after treatment with flumioxazin, the herbicidal activity against Amaranthus retroflexus was determined.

[8] = test system: Amaranthus retroflexus; experiment: Herbicidal activity, soil surface spray on day of planting (Example 1); type: in vivo; settings: four weeks after treatment, scale 0 to 100
Description: (§3) The stem cutting from which a bud had grown to about 1 cm was selected, and the length of the stem cutting was adjusted to be 3 cm, 15 cm or 25 cm. The stem cutting of 3 cm or 15 cm had only one node, and the stem cutting of 25 cm had two nodes. A soil was packed into a 32 cm×25 cm×11 cm plastic pot, and seeds of Amaranthus retroflexus were seeded thereon. […] On the date when the stem cutting was planted, and after planting of the stem cutting, a water-diluted liquid of a flumioxazin water dispersible granule (water dispersible granule containing 51% floumioxazin, trade name: Valor SX, manufactured by Valent USA Corporation) (100 ppm or 250 ppm) was uniformly sprayed on the soil surface with a sprayer at an amount described in Table 1. Thereafter, the pot for a test was placed in a greenhouse. Four weeks after treatment with flumioxazin, phytotoxicity on sugar cane and the herbicidal activity against Amaranthus retroflexus were determined.

[9] = test system: sugar cane; experiment: Phytotoxicity on sugar cane, soil surface spray on day of planting (Example 1); type: in vivo; settings: four weeks after treatment, scale 0 to 100
Description: as §3

[10] = Example 8, 3 cm stem cutting treated with kresoxim-methyl, azoxystrobin or another listed strobilurin fungicide, soil surface spray, four weeks after treatment
[11] = Example 11, sprayed above weed, 3 cm stem cutting treated with azaconazole, bitertanol or another listed azole-type fungicide planted one week after treatment, four weeks after treatment
[12] = Example 7, sprayed above weed, 3 cm stem cutting treated with clothianidin, thiamethoxiam, imidacloprid, dinotefuran, nitenpyram, acetamiprid or thiacloprid planted one week after treatment, four weeks after treatment
[13] = Example 4, 3 cm stem cutting, one node, soil surface spray on date of planting, four weeks after treatment

Structure (SMILES) | herbicidal activity against Amaranthus retroflexus [1] | phytotoxicity ([2]; in vivo) | phytotoxicity ([3]; in vivo) | herbicidal activity against Amaranthus retroflexus [4] | phytotoxicity ([5]; in vivo) | phytotoxicity [6, 10] | phytotoxicity [2, 11] | phytotoxicity [5, 12] | phytotoxicity [3, 13] | phytotoxicity ([6]; in vivo) | other results
C#CCN1C(=O)COc2cc(F)c(-n3c(=O)n(C)c(=S)n(C)c3=O)cc21 [compound of the formula (I)] | the controlling effect on a weed can be confirmed | significant phytotoxicity on sugar cane is not observed | significant phytotoxicity on sugar cane is not observed | the controlling effect on a weed can be confirmed | significant phytotoxicity on sugar cane is not observed | significant phytotoxicity on sugar cane is not observed | – | – | – | – | –
C#CCN1C(=O)COc2cc(F)c(N3C(=O)C4=C(CCCC4)C3=O)cc21 [Flumioxazin, flumioxazin] | – | – | – | the controlling effect on a weed can be confirmed | – | significant phytotoxicity on sugar cane is not observed | significant phytotoxicity on sugar cane is not observed | significant phytotoxicity on sugar cane is not observed | – | – | Herbicidal activity ([7]; stem cutting 8 cm): 100; Herbicidal activity ([7]; stem cutting 15 cm): 100; Herbicidal activity ([7]; stem cutting 25 cm): 100; Herbicidal activity ([8]; 50 g (active ingredient)/ha, stem cutting 3 cm): 100; Herbicidal activity ([8]; 50 g (active ingredient)/ha, stem cutting 15 cm): 100; Herbicidal activity ([8]; 50 g (active ingredient)/ha, stem cutting 25 cm): 100; Herbicidal activity ([8]; 125 g (active ingredient)/ha, stem cutting 3 cm): 100; Herbicidal activity ([8]; 125 g (active ingredient)/ha, stem cutting 15 cm): 100; Herbicidal activity ([8]; 125 g (active ingredient)/ha, stem cutting 25 cm): 100; Phytotoxicity on sugar cane ([9]; 50 g (active ingredient)/ha, stem cutting 3 cm (one node)): 0; Phytotoxicity on sugar cane ([9]; 50 g (active ingredient)/ha, stem cutting 15 cm (one node)): 5; Phytotoxicity on sugar cane ([9]; 50 g (active ingredient)/ha, stem cutting 25 cm (two nodes)): 20; Phytotoxicity on sugar cane ([9]; 125 g (active ingredient)/ha, stem cutting 3 cm (one node)): 0; Phytotoxicity on sugar cane ([9]; 125 g (active ingredient)/ha, stem cutting 15 cm (one node)): 5; Phytotoxicity on sugar cane ([9]; 125 g (active ingredient)/ha, stem cutting 25 cm (two nodes)): 20
CC(C)N(C)S(=O)(=O)NC(=O)c1cc(-n2c(=O)cc(C(F)(F)F)n(C)c2=O)c(F)cc1Cl [Saflufenacil, saflufenacil] | the controlling effect on a weed can be confirmed | – | – | the controlling effect on a weed can be confirmed | – | significant phytotoxicity on sugar cane is not observed | significant phytotoxicity on sugar cane is not observed | significant phytotoxicity on sugar cane is not observed | significant phytotoxicity on sugar cane is not observed | – | –
CC(C)Oc1cc(-n2nc(C(C)(C)C)oc2=O)c(Cl)cc1Cl [oxadiazon] | the controlling effect on a weed can be confirmed | significant phytotoxicity on sugar cane is not observed | significant phytotoxicity on sugar cane is not observed | the controlling effect on a weed can be confirmed | significant phytotoxicity on sugar cane is not observed | – | – | – | – | significant phytotoxicity on sugar cane is not observed | –
CCOc1cc(Oc2ccc(C(F)(F)F)cc2Cl)ccc1[N+](=O)[O-] [oxyfluorfen] | the controlling effect on a weed can be confirmed | – | – | the controlling effect on a weed can be confirmed | – | significant phytotoxicity on sugar cane is not observed | significant phytotoxicity on sugar cane is not observed | significant phytotoxicity on sugar cane is not observed | significant phytotoxicity on sugar cane is not observed | – | –
Cc1nn(-c2cc(NS(C)(=O)=O)c(Cl)cc2Cl)c(=O)n1C(F)F [sulfentrazone] | the controlling effect on a weed can be confirmed | significant phytotoxicity on sugar cane is not observed | significant phytotoxicity on sugar cane is not observed | the controlling effect on a weed can be confirmed | significant phytotoxicity on sugar cane is not observed | – | – | – | – | significant phytotoxicity on sugar cane is not observed | –
